Assay results from ChEMBL document CHEMBL3817789 (2016).
≈ marks a conversion by molar mass, not a printed value.

Assays:
Assay type in all cases: functional
Candida albicans = test: Antifungal activity against clinical isolates of Candida albicans SC5314 after 48 hrs by broth microdilution method; conditions: SC5314, 48 h
Staphylococcus aureus [1] = test: Antibacterial activity against methicillin-resistant Staphylococcus aureus isolate SDSM1503 after 24 hrs by broth microdilution method; conditions: isolate SDSM1503, 24 h
Staphylococcus aureus [2] = test: Antibacterial activity against methicillin-sensitive Staphylococcus aureus isolate SDS15016 after 24 hrs by broth microdilution method; conditions: isolate SDS15016, 24 h

Row | Structure (SMILES) | MIC80 (Candida albicans) [µg/mL] | MIC (Staphylococcus aureus [1]) [µg/mL] | MIC (Staphylococcus aureus [2]) [µg/mL]
1 | Oc1ccc2cc1Oc1ccc(cc1)CCc1cccc(O)c1-c1cc(Br)c(cc1O)CC2 | > 64 | 4 (≈ 7.95 µM) | 2 (≈ 3.97 µM)
2 | Cc1onc(-c2ccccc2)c1C(=O)N[C@@H]1C(=O)N2[C@@H]1SC(C)(C)[C@@H]2C(=O)[O-].[Na+] |  | > 128 | 8
3 | COc1cc2ccc1-c1c(O)cccc1CCc1ccc(cc1)Oc1cc(ccc1O)CC2 | > 64 | 8 (≈ 18.2 µM) | 2 (≈ 4.56 µM)
4 | Oc1cc2ccc1Oc1cc(cc(O)c1O)CCc1ccc(c(O)c1)-c1c(O)cccc1CC2 | > 64 | 16 (≈ 35 µM) | 8 (≈ 17.5 µM)
5 | COc1cccc2c1-c1ccc(cc1O)CCc1ccc(O)c(c1)Oc1ccc(cc1)CC2 | > 64 | 4 (≈ 9.12 µM) | 2 (≈ 4.56 µM)
6 | Oc1cc2ccc1-c1c(ccc(Br)c1O)CCc1ccc(cc1)Oc1cc(cc(Br)c1O)CC2 | > 64 | 16 (≈ 27.5 µM) | 8 (≈ 13.7 µM)
7 | CC(C)(O/N=C(\C(=O)N[C@@H]1C(=O)N2C(C(=O)[O-])=C(C[n+]3ccccc3)CS[C@H]12)c1csc(N)n1)C(=O)O [CEFTAZIDIME] |  | > 128 | 4 (≈ 7.32 µM)
8 | Oc1cc2ccc1-c1c(O)cccc1CCc1ccc(cc1)Oc1cc(cc(O)c1O)CC2 | > 64 | 8 (≈ 18.2 µM) | 2 (≈ 4.54 µM)
9 | Oc1ccc2cc1Oc1ccc(cc1)CCc1c(Br)ccc(O)c1-c1ccc(c(Br)c1O)CC2 | 8 (≈ 13.7 µM) | 4 (≈ 6.87 µM) | 2 (≈ 3.43 µM)
10 | OC(Cn1cncn1)(Cn1cncn1)c1ccc(F)cc1F [FLUCONAZOLE] | 2 (≈ 6.53 µM) |  | 
11 | Oc1ccc2cc1Oc1ccc(cc1)CCc1ccc(Br)c(O)c1-c1ccc(c(Br)c1O)CC2 | > 64 | 16 (≈ 27.5 µM) | 4 (≈ 6.87 µM)
12 | Oc1ccc2cc1Oc1ccc(cc1)CCc1cccc(O)c1-c1ccc(c(Br)c1O)CC2 | > 64 | 8 (≈ 15.9 µM) | 2 (≈ 3.97 µM)
13 | CO/N=C(\C(=O)N[C@@H]1C(=O)N2C(C(=O)O)=C(COC(C)=O)CS[C@H]12)c1csc(N)n1 [CEFOTAXIME] |  | > 128 | 4 (≈ 8.78 µM)
14 | Oc1ccc2cc1Oc1ccc(cc1)CCc1c(Br)ccc(O)c1-c1cc(Br)c(cc1O)CC2 | 8 (≈ 13.7 µM) | 4 (≈ 6.87 µM) | 2 (≈ 3.43 µM)
15 | Oc1cc2ccc1Oc1cc(ccc1O)CCc1ccc(c(O)c1)-c1c(O)cccc1CC2 | > 64 | 4 (≈ 9.08 µM) | 2 (≈ 4.54 µM)
16 | Oc1ccc2cc1Oc1ccc(cc1)CCc1ccc(Br)c(O)c1-c1cc(Br)c(cc1O)CC2 | > 64 | 4 (≈ 6.87 µM) | 2 (≈ 3.43 µM)
17 | Cc1onc(-c2ccccc2Cl)c1C(=O)N[C@@H]1C(=O)N2[C@@H]1SC(C)(C)[C@@H]2C(=O)O [CLOXACILLIN] |  | > 128 | 0.5 (≈ 1.15 µM)
